Measured values taken from patent publication US8961986B2, “Peptide composition” (Apitope Technology (Bristol) Limited, priority 2000, dated 2015).
Entries after “also recorded” stand apart in the source; their conditions may differ.

Columns and labels:
[1] = system: splenocytes from double transgenic mice; experiment: Induction of tolerance with Apitope MS7 in double-transgenic mice, splenocyte cytokine ELISA; assay type: in vivo; settings: 48 hr cultures; subcutaneous/intradermal treatment vs PBS
Procedure: (§1) Groups of 6 or 7 age (8-12 weeks) and sex matched double transgenic mice were used. In the first experiment one group was treated ten times intranasally with 100 μg Apitope MS7 in […] at regular intervals over a period of three weeks. The control group received PBS alone. In the second experiment the same amount of peptide was given by subcutaneous/intradermal administration in […] PBS. The control group received the same volume of PBS.
In the second experiment, where tolerance induction was induced via the subcutaneous/intradermal route, cell culture supernatants from the splenocytes were collected at 48 and 72 hrs of culture, and assayed for the presence of IFN-γ and interleukin-2 (IL-2) using an enzyme linked immunosorbant assay (ELISA).

[2] = system: HLA-DR2; experiment: HLA-DR2 binding of cocktail peptides; set-up: species or system human
[3] = system: MBP-specific T cell clones; experiment: T cell clone (TCC) proliferation assay, fine mapping of MBP epitopes; assay type: cell-based, human; settings: TCC from MS patients and healthy individuals, proliferative response
Procedure: MBP-specific T cell lines (TCL) are generated from 8 MS patients and 2 healthy control donors. PBMC from each subject are separated as described above and plated out at 1×10^6 cells/ml in 6-well plates in the presence of MBP (50 μg/ml); a portion of PBMC from each subject is regularly frozen and stored for subsequent restimulations. Seven days later the cells are fed with fresh medium containing 2% IL-2 (Lymphocult-HT; Biotest LTD., Birmingham, UK), and on day 12 of culture all cells are restimulated with antigen, IL-2 and irradiated (2500 Rad) autologous PBMC as a source of antigen presenting cells (APC), at a cell ratio of 1T cell:5 APC. Cells are expanded in IL-2 every 3-4 days, and on day 14 are restimulated with antigen, IL-2 and PBMC, as described above. On the day of the first restimulation cells are examined for specific proliferation to MBP. Briefly, 2×10^4 T cells and 1×10^5 irradiated autologous PBMC are cultured in triplicate, in 96-well round-bottom plates, in the presence of MBP. Cells are cultured for 2 days and pulsed with (^3H)-Thymidine at 0.4 μCi/well during the last 18 hours of the culture. Cells are then harvested as described above, and a TCL is considered to be MBP-specific with a δcpm>1000 and a SI>3.
Following 3 restimulation/expansion cycles TCL are cloned using PHA (Sigma, Poole, Dorset, UK)) in the presence of autologous irradiated PBMC as APC. T cells are plated under limiting dilution conditions at 0.1 cell/well, 0.3 cell/well and 1 cell/well and cultured in Terasaki plates (Nunc International, Costar) with 1×10^4 irradiated PBMC, 5 μg/ml PHA, and 2% IL-2. After 10-12 days, growth-positive wells are expanded onto 96-well round-bottom plates, using 1×10^5 irradiated PBMC, 5 μg/ml PHA and IL-2. Three days later wells are fed with fresh medium containing IL-2, and on day 7 the clones are expanded onto 48-well plates using 5×10^5 irradiated PBMC, PHA and IL-2; at this point clones are tested in proliferation assays for specific responses to MBP. MBP-specific clones are expanded a week later onto 24-well plates, using 1×10^6 irradiated PBMC with PHA or Dynabeads (Dynal, UK) and IL-2. The clones are maintained in 24-well plates using a 7-10 day restimulation/expansion cycle, essentially as described above. The ability of T cell clones (TCC) to recognize the panel of MBP peptides is tested by proliferation assays, as described above.
TCC are generated from 8 MS patients and 2 healthy individuals, and used to clarify the fine specificity of the peptide regions identified in the kinetic response assay. The specificity of each TCC is tested by its proliferative response to the panel of 15-mer peptides. Clone SD:A7 recognised region 1-24, and within this region this TCC responded to a.a. 5-19. Region 30-54 is recognised by 4 clones (MS49:D3, MS49:C8, MS49:A8, MS49:B6) and the epitope within this region is 30-44. […] Five clones (MS43:A7, MS41:B6, MS41:A2, MS41:C6, N5:8) recognize a.a. 83-99 which is contained in region 75-99. One patient produced TCC specific for a.a. 110-124 (MS60:A2, MS60:B3), contained within the 105-129 pool, and another TCC from the same patient is specific to 130-144 (MS60:E1), found within the 120-144 region. Five individuals produce clones which recognize epitopes within the region 135-159: MS60:F7, MS60:D1, MS59:F1 and N5:19 recognizes a.a. 140-154; MS57:A1 is specific to 140-149, and TCC MS17:A3 responds to sequence 130-144. […] Lastly, region 150-170 is recognized by 2 clones specific to a.a. 156-169.

[4] = system: fixed Mgar (HLA-DR2+ve) APC presenting to T cells from DR2:MBP 82-100 transgenic mouse; experiment: Antigen-presentation assay using an APIPS (fixed APC) with T cells from DR2:MBP82-100 transgenic mouse; assay type: cell-based; settings: live or p-formaldehyde-fixed Mgar cells, 72 h
Procedure: Presentation of peptides to T cells isolated from DR2:MBP82-100 transgenic mouse was essentially as described above except APC were plated at 5×10^5 cells per well, T cells were plated at 1×10^5 cells per well, and incubation was allowed to proceed for 72 h prior to the addition of [^3H]-thymidine.
For any given epitope, there may exist one or more apitopes, capable of being presented to APC without further processing. The presence of apitopes within two regions of MBP is investigated by incubating live or p-formaldehyde-fixed Mgar (HLA-DR2+ve) cells are incubated with overlapping peptides in serum from MBP regions 77-100 (FIG. 12) and 125-148 (FIG. 13) or in serum alone. T cells were added and after 72 h (FIG. 12) or after 48 h (FIG. 13) the T cell proliferative response was measured by ^3H-thymidine uptake. For MBP 77-100, the T cells are isolated from a DR2:MBP 82-100 transgenic mouse, whereas for MBP 130-144 the T cell clone MS17:A3 is used.

[5] = system: splenocytes from double transgenic mice; experiment: Induction of tolerance with Apitope MS7 in HLA:DR2 / TCR MBP 82-100 double-transgenic mice, splenocyte proliferation; assay type: in vivo
Procedure: as §1
Three days after the last administration of peptide or PBS, the spleens were harvested and cell suspensions prepared. The splenocytes were incubation with 0.5 or 5 μg/ml Apitope MS7, and assessed for proliferation by [^3H]-Thymidine incorporation after 48, 72 and 96 hours of culture. Results are expressed as stimulation indices (SI=counts per minute (cpm) of culture containing antigen/counts per minute without antigen).

[6] = system: lymphocytes from HLA:DR2 (DRB1*1501) transgenic mice; experiment: Induction of tolerance with Apitope MS6 in HLA:DR2 transgenic mouse, lymph node cell proliferation; assay type: in vivo
Procedure: HLA:DR2 transgenic mice aged 8-12 weeks were used in the study. The mice were tolerized by pre-treatment with 100 μg of Apitope MS6 in […] phosphate buffered saline (PBS) or […] alone, by intranasal administration on days −8, −6 and −4 prior to immunisation on day 0.
Following tolerization, mice were immunised subcutaneously with […] an emulsion containing an equal volume of Complete Freund's Adjuvant (CFA) and PBS containing 200 μg of Apitope MS6 and 400 μg heat-killed Mycobacterium tuberculosis. A control group of mice, previously tolerized with PBS intranasally, were immunised without peptide.
At 10 days post subcutaneous immunisation, draining popliteal and inguinal lymph nodes were removed and T-cell activation was assessed by assaying the proliferation of T-cells in response to various concentrations of Apitope MS6. Proliferation was measured by [^3H]-Thymidine incorporation, and expressed as the stimulation index (SI=corrected counts per minute (ccpm) culture containing peptide/ccpm culture without peptide).

[7] = system: MHC class I or II molecule; settings: cited from earlier work
[8] = system: draining lymph node cells; experiment: Tolerance experiments with 89-101 and 87-96: lymph node cell recall proliferation; assay type: in vivo, Mice
Procedure: In order to test this possibility tolerance experiments are performed with the 89-101 and 87-96 peptides (FIGS. 15a and b).
Mice received 200 μg of peptide in PBS or PBS alone intraperitoneally on days −8, −6 and −4 prior to 100 μg of peptide in complete Freunds adjuvant on day 0. After 10 days, draining lymph node cells (6×10^5 per well) were cultured in X-Vivo 15 medium supplemented with 5×10^−5M 2-mercaptoethanol and […] L-glutamine with or without antigen for 72 hours. Cultures were pulsed for the final 16 hours with 0.5 μCi ^3H.thymidine and incorporation measured using a liquid scintillation counter. Results are expressed as means counts per minute for triplicate cultures.

[9] = target: T1, I-A^S (Mus musculus, UniProt P06345+P14437); settings: cited from earlier work
T1 sequence (P14437 1-233): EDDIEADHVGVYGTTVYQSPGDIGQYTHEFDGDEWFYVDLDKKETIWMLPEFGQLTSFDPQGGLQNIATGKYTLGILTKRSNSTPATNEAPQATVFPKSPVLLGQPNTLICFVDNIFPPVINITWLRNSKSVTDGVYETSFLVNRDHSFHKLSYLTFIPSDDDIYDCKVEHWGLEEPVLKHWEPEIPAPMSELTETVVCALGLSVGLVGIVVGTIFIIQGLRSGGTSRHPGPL
T1 sequence (P06345 28-263): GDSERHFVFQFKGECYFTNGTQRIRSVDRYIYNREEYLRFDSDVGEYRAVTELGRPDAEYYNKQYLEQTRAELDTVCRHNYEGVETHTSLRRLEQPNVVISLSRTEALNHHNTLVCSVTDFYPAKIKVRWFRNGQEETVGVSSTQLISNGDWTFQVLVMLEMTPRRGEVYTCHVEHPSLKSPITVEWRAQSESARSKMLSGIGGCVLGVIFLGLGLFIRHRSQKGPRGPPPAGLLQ

[10] = system: 81-111-responsive T-cell line and sub-lines; experiment: Reactivity of T cell lines and clones from peptide-primed mice to MBP 81-111 region peptides; assay type: cell-based; settings: TCL specific for 89-94, 92-98, 95-101
Procedure: In order to investigate T cell reactivity to the 81-111 region of MBP, lymph node cells from mice primed with 81-111 are stimulated with 81-111 in vitro and these cells are tested with a panel of overlapping 10-mer peptides with two residue shifts covering the 81-111 region (namely: 81-90, 83-92, 85-94, 87-96, 89-98, 91-100, 93-102, 95-104, 97-106, 99-108 and 101-111). The response pattern to peptides covering the 89-101 show stimulatory capacity for 5 adjacent peptides (N terminal 87-96 through to 95-104) reflecting the presence of at least two (and perhaps three) distinct epitopes.
In order to investigate this region further, three sub-lines are generated from the original 81-111-responsive T-cell line and these are retested with a panel of overlapping 10-mer peptides with one residue shift covering the 84-106 region. The results reveal the existence of three distinct but overlapping T cell epitopes within the 89-101 sequence: 89-94, 92-98 and 95-101 (see FIG. 14).

[11] = system: experimental autoimmune encephalomyelitis (EAE); settings: cited from earlier work

For “H-Glu-Asn-Pro-Val-Val-His-Phe-Phe-Lys-Asn-Ile-Val-Thr-Pro-Arg-Thr-Pro-NH2 (H-ENPVVHFFKNIVTPRTP-NH2) [MBP 83-99]”, the “IFNγ secretion in splenocyte culture supernatants” value [1] was “impressive reduction in secretion”, the “IL-2 secretion in splenocyte culture supernatants” value [1] was “impressive reduction in secretion” and the HLA-DR2 binding [2] was “HLA-DR2 binding”. For the same substance, the “T cell clones (TCC) recognising the peptide” value (“T cell clones” for short) [3] was “Five”, the “apitope within MBP region 77-100” value [4] was “shown to act as apitopes” and the “mean SI of splenocyte proliferation, intranasal treatment” value ([5]; 72 hrs, cultures with 5 μg/ml 83-99, PBS control mean SI 89) was 17. For the same substance, the “mean SI of splenocyte proliferation, subcutaneous treatment” value ([5]; PBS treated animals mean SI 124) was 49 and the “splenocyte proliferation after treatment, both routes” value ([5]; intranasal and subcutaneous/intradermal) was “striking reduction in proliferation”.

In the case of “H-Gly-Phe-Lys-Gly-Val-Asp-Ala-Gln-Gly-Thr-Leu-Ser-Lys-Ile-Phe-NH2 (H-GFKGVDAQGTLSKIF-NH2) [MBP 140-154]”, the “SI median of lymphocyte proliferation after intranasal pre-treatment” value ([6]; Group B, 100 μg intranasal days -8, -6, -4, recall peptide 150 μg/ml (PBS group SI median 2.5 to 10)) is reported as 3, the “tolerance induction in lymphocytes from HLA-DR2 mice” value ([6]; intranasal pre-treatment) is reported as “has induced tolerance” and the HLA-DR2 binding [2] is reported as “HLA-DR2 binding”. For the same substance, the “T cell clones” value [3] was “responded”, the “T cell clones” value ([3]; listed as 140-154) was “recognizes” and the “identified as apitope in WO 03/064464” value [7] was “apitopes”.

For “MBP 89-101: myelin basic protein (MBP) peptide 89-101, immunodominant antigen, not tolerogenic (PHLIRLFSRDAPG; UniProt P02686 89-101, looked up, fragment)”, the “effect of peptide as tolerogen on recall responses after priming with 87-96” value ([8]; 200 μg i.p. days -8, -6, -4, priming 87-96 in CFA day 0, lymph node cells day 10) is listed as “failed to inhibit recall responses to either 87-96 or 89-101”, the “in vitro recall response after priming with 87-96” value ([8]; PBS pre-treated mice, lymph node cells) is listed as “weaker response” and the “binding affinity for I-A^S” value [9] is listed as “relatively high affinity”. The “response of the three epitope-specific T cell lines (TCL) to the peptide” value [10] was “All three TCL respond”, the “inducing tolerance when administered in solution” value ([11]; Anderton and Wraith (1998)) was “ineffective at inducing tolerance” and the “prevention of / protection against EAE by peptide in soluble form” value ([11]; EAE induced with whole myelin or the 89-101 peptide) was “does not prevent; also recorded: fails to protect against EAE”. The “immunogenicity: priming for T cell reactivity and induction of EAE” value ([11]; after immunisation) was “very effective immunogen”.
